Values after ≈ are worked out from the molar mass of the structure shown.
Assays:
[1] = system: HDAC activity; assay: H2O2-induced reduction of HDAC activity in PMA-differentiated U937 cells; type: cell-based, human; details: for restoration of H2O2-reduced HDAC activity (%): test concentration not given, bracketed second value not explained
How it was run: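 U937 cells PMA-differentiated for 3 days, pretreated with compound for 20 min, then exposed to 200 μM H2O2 for 4 h with Fluor de Lys substrate present. Whole-cell HDAC activity measured fluorimetrically. Data expressed as fold change versus H2O2-only control, mean of four experiments ± SEM.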

[2] = system: HDAC2 mRNA; assay: Cigarette smoke extract-induced reduction of HDAC2 mRNA in A549 cells; type: cell-based, human; details: A549; CSE
Experimental: Preparations of cigarette smoke extract. To prepare the cigarette smoke extract, two full-strength Marlboro cigarettes (filters removed; Phillip Morris USA, Richmond, Va.) are combusted through a modified 60-ml syringe apparatus, and the smoke passed through 20 ml of DMEM medium. Each cigarette generally yields five draws of the syringe (to the 60-ml mark), with each individual draw taking approximately 10 s to complete. Cigarette smoke extract is then passed through a 0.20-μm filter to sterilize and remove particulate matter and is used immediately unless otherwise stated.
Quantitative RT-PCR. Total RNA extraction and reverse transcription are performed using an RNeasy kit (QIAGEN, Crawley, UK) and a High-Capacity cDNA Reverse Transcription Kits (Applied Biosystems, Foster City, Calif.). Gene transcript level of HDAC2 (HS00231032_M1, Applied Biosystems, California, USA) and the house-keeping gene, guanine nucleotide binding protein beta polypeptide-2-like 1 (GNB2L1) (HS00272002_M1, Applied Biosystems) are quantified by real-time PCR using a TaqMan® Gene Expression Master Mix (Applied Biosystems) on a Rotor-Gene 6000 (Corbett Research, Cambridge, UK). Transcripts are analysed by the delta (D) CT method and variations in cDNA concentrations between different samples were corrected using GNB2L1.
Effects of macrolides on cigarette smoke extract-induced (CSE-induced) reduction of HDAC2 mRNA in A549 cells. Cells pretreated with compounds described herein for 30 min are exposed to CSE (0.15 O.D.) for 1 hr. The cells are washed twice and incubated with medium only for 4 hrs. Data are expressed as % reduction from baseline (left) or % increase from baseline under H2O2. Values represent means of three experiments±SEM. Example 33 reverses cigarette smoke extract-induced (CSE-induced) reduction of HDAC2 mRNA expression in A549 cells at concentrations of about 10 μM or greater, and with statistical significance of p<0.05 versus treatment with CSE only (one-way ANOVA with post hoc test, n=3) at doses of about 30 μM or greater.

[3] = system: Akt; assay: H2O2-induced phosphorylation of Akt in PMA-differentiated U937 cells (western blot); type: cell-based, human; details: PMA-differentiated U937; H2O2 1 mM 30 min
How it was run: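 PMA-differentiated U937 macrophage-like cells pretreated with compound 20 min, then stimulated with 1 mM H2O2 for 30 min. pAkt measured by western blot densitometry, normalised to total protein and expressed as fold change versus H2O2-only control; mean ± SEM of 3–4 experiments.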

[4] = system: IL-8; assay: LPS-induced IL-8 release in PMA-differentiated U937 cells (ELISA); type: cell-based, human; details: for IL-8 inhibition (%): test concentration not given
How it was run: (§1)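 PMA-differentiated U937 macrophage-like cells were pretreated with compound for 1 hr, then stimulated with LPS (100 ng/ml) for 4 hrs. Released IL-8 and TNFα were quantified by sandwich ELISA. Values are means of three experiments ± SEM.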

[5] = system: TNFα; assay: LPS-induced TNFα release in PMA-differentiated U937 cells (ELISA); type: cell-based, human; details: for TNFα inhibition (%): test concentration not given
How it was run: as §1

[6] = system: U937 cells; assay: H2O2-induced steroid insensitivity in U937 cells (dexamethasone IC50 on TNFα-induced IL-8); type: cell-based, human; details: highest concentration tested (100 μM); H2O2 200 μM
Experimental: Cytokine ELISA. LPS-induced IL-8, TNFα concentrations and TNFα-induced IL-8 concentrations are determined by sandwich ELISA according to the manufacturer's instructions (R&D Systems Europe). IC50 values for dexamethasone on IL-8 production are calculated using the computer program Prism 4.0 (GraphPad Software Inc., San Diego, Calif.) as a marker for steroid sensitivity.
Restoration of steroid sensitivity. U937 cells: U937 are treated with oxidative stress (H2O2, 200 μM or 0.15 dilution CSM (cigarette smoke conditioned medium)) and 4 hours later, stimulated with TNFα (10 ng/ml) in the presence of dexamethasone (10^−11-10^−6M). Supernatant and cells are collected 24 hrs after stimulation and IL-8 is measured by conventional ELISA. As the index of corticosteroid sensitivity, IC50 of dexamethasone is calculated. Test compounds are treated 20 min before oxidative stress treatment.
Effects of compounds on H2O2-induced steroid insensitivity in U937 cells. Cells stimulated with H2O2 (200 μM) overnight are incubated with compounds described herein for 30 min under H2O2 (200 μM) exposure. The cells are treated with dexamethasone (10^−11 to 10^−6 M) for 20 min, followed by the TNFα stimulation overnight. TNFα-induced IL-8 release is evaluated by ELISA and IC50 values for dexamethasone on IL-8 production are calculated using Prism. Data are expressed as fold changes against positive control treated with H2O2 only. Values represent means of four experiments±SEM. H2O2 exposure reduces dexamethasone sensitivity by approximately 4 fold based on calculated IC50 values of TNFα-induced IL-8 production.

[7] = system: A/J mice exposed to LPS; assay: Anti-inflammatory activity in vivo: A/J mice exposed to LPS intranasally; details: intranasal, 1 hr before LPS challenge
[8] = system: U937 cells; details: H2O2-induced insensitivity on TNF-α-induced IL-8 production; cited from earlier work
[9] = system: PBMCs from COPD patients; details: PBMCs obtained from COPD patients; cited from earlier work
[10] = system: MMP9; details: macrophages in sputum of COPD patients; cited from earlier work
[11] = system: HDAC2; details: reduced by oxidative stress; cited from earlier work
[12] = system: MMP9; assay: PMA-induced MMP9 expression in U937 cells (gelatin zymography); type: cell-based, human; details: test concentration not given; bracketed second value not explained
[13] = type: cell-based; details: test concentration not given
[14] = system: H. influenzae ATCC 49247; assay: MIC; type: cell-based
[15] = system: S. pneumoniae ATCC 49619; assay: MIC; type: cell-based
[16] = system: S. pneumoniae 163 (MefA); assay: MIC; type: cell-based; details: in µg/mL
[17] = system: S. pneumoniae 3773 (ErmB); assay: MIC; type: cell-based
[18] = system: S. pyogenes ATCC 1721; assay: MIC; type: cell-based
[19] = system: S. pneumoniae 303 (ErmB); assay: MIC; type: cell-based

Structure (SMILES) | restoration of H2O2-reduced HDAC activity (%) [1] [%] | IL-8 inhibition (%) [4] [%] | TNFα inhibition (%) [5] [%] | MMP9 inhibition (%) [12] [%] | Cell Toxicity (% cell death) [13] [%] | MIC H. influenzae ATCC 49247 [14] [µg/mL] | MIC S. pneumoniae ATCC 49619 [15] [µg/mL] | MIC S. pneumoniae 163 (MefA) [16] | MIC S. pneumoniae 3773 (ErmB) [17] [µg/mL] | MIC S. pyogenes ATCC 1721 [18] [µg/mL] | also measured
CC[C@H]1OC(=O)[C@H](C)[C@@H](O[C@H]2C[C@@](C)(OC)[C@@H](O)[C@H](C)O2)[C@H](C)[C@@H](O[C@@H]2O[C@H](C)C[C@H](N(C)C)[C@H]2O)[C@](C)(O)C[C@@H](C)C(=O)[C@H](C)[C@@H](O)[C@]1(C)O [ERY, erythromycin] | – | – | – | – | – | – | – | – | – | – | restoration of HDAC activity compared with Example 33 ([1]; PMA-differentiated U937, H2O2 200 μM 4 hrs): only at much higher doses than Example 33; HDAC activity reached compared with untreated controls ([1]; PMA-differentiated U937, H2O2 200 μM, comparators at highest doses tested): only restore HDAC activity to levels comparable to untreated controls; reversal of HDAC mRNA expression reduction compared with Example 33 [2]: only at much higher doses than Example 33; inhibition of Akt phosphorylation compared with Example 33 [3]: at comparable concentrations; inhibition of LPS-induced IL-8 release compared with Example 33 ([4]; LPS 100 ng/ml 4 hrs): did not show any inhibition at any concentration tested; inhibition of LPS-induced TNFα release compared with Example 33 ([5]; LPS 100 ng/ml 4 hrs): did not show any inhibition at any concentration tested; restoration of dexamethasone sensitivity [6]: None of ERY, CLR, or AZI restored dexamethasone sensitivity; anti-inflammatory action in LPS-exposed A/J mice [7]: have anti-inflammatory action; restoration of corticosteroid sensitivity (reported) [8]: restore corticosteroid sensitivity; restoration of corticosteroid sensitivity (reported) [9]: restore corticosteroid sensitivity; MMP9 expression (reported) [10]: inhibited MMP9 expression; HDAC2 promoter activity and protein expression (reported) [11]: restore HDAC2 promoter activity and protein expression
CC[C@H]1OC(=O)[C@H](C)C(=O)[C@H](C)[C@@H](O[C@@H]2O[C@H](COC(=O)c3ccccc3)[C@@H](N)[C@@H]2O)[C@@](C)(OC)C[C@@H](C)C(=O)[C@H](C)[C@H]2N(CCCCn3cc(-c4ccccn4)nn3)C(=O)O[C@]12C [Example 26] | 92 | −51 | −25 | 2 | −2 | > 64 | 32 (≈ 35.9 µM) | 64 | > 64 | > 64 | –
CC[C@H]1OC(=O)[C@@](C)(F)C(=O)[C@H](C)[C@@H](O[C@@H]2O[C@H](C)[C@@H](OC(=O)Nc3ccccc3)[C@H](N(C)C)[C@H]2O)[C@@](C)(OC)C[C@@H](C)C(=O)[C@H](C)[C@H]2N(CCCCn3cc(-c4ccccn4)nn3)C(=O)O[C@]12C [Example 27] | 75 | −43 | 34 | 1 | −7 | > 64 | 32 (≈ 33.1 µM) | 8 | > 64 | > 64 | MIC S. pneumoniae 303 (ErmB) [19]: > 64 µg/mL

— patent US9937194B1, “Compounds and methods for treating inflammatory diseases” (priority 2009, dated 2018)
